Data from US20160310583A1, “TUMOR ANTIGEN PEPTIDE” (Sumitomo Dainippon Pharma Co., Ltd., priority 2013, published 2016).
Peptide text beside a SMILES is read from it.

How the values were obtained:
[1] = system: T2-A24 cells; assay: Cytotoxicity test (calcein release) of peptide-induced CTLs toward peptide-pulsed T2-A24 cells; type: cell-based, human; details: T2-A24 cells pulsed with 20 μg/mL peptide, E/T ratio 3, 10, 30; versus no peptide, HIV peptide and K562
Experimental: T2-A24 cells and K562 HLA-class I-deficient leukemia cells (obtained from ATCC) were suspended in 10% FBS-supplemented RPMI at a cell concentration of 1×10^6 cells/mL. Calcein (obtained from Dojindo) was added so as to give a final concentration of 10 μg/mL, and culturing was carried out at 37° C. for 30 minutes. Washing was carried out three times with 10 mL of 10% FBS-supplemented RPMI.
T2-A24 cells that had been stained with calcein were pulsed with each peptide at a concentration of 20 μg/mL at room temperature for 1 hour. With regard to the peptide pulse group there were three groups, that is, [1] no peptide pulse, [2] HIV peptide pulse, and [3] FAM83B peptide pulse. Subsequent to the peptide pulse, washing was carried out twice with PBS. Each cell group was plated to each well at 1×10^4 cells/50 μL. The fluorescence intensity (0 hours) of the cells plated to each well was measured using a Terascan (Minerva Tech K.K.).
After the 0 hours measurement, numbers of effector cells (CTLs) were plated to each well so that the effector/target ratio (E/T ratio) became 3, 10, and 30. Human PBMC inactivated at 80° C. was plated as a spontaneous release well. 2% NP-40-containing PBS was added in a maximum release well. After culturing at 37° C. for 4 hours to 6 hours, the fluorescence intensity of each well was measured using a Terascan. The cytotoxicity was calculated using the equation below. […]

[2] = system: human colon cancer cell line (SW480); assay: Detection of SP fraction by Hoechst 33342/PI flow cytometry; type: cell-based; details: verapamil final concentration 75 μM, Hoechst 33342 5.0 μM
Experimental: 5% fetal bovine serum (FCS (HyClone Laboratories))-supplemented DMEM (Sigma-Aldrich) medium was prepared as a medium and warmed at 37° C. Verapamil (Sigma-Aldrich) was adjusted to 50 mM and diluted to 5 mM using the 5% FCS-supplemented DMEM medium. Hoechst 33342 (Lonza) was adjusted to 250 μg/mL using the 5% FCS-supplemented DMEM medium. DNase I (Qiagen) was adjusted to 1 mg/mL using DDW and sterilized by filtration using a 0.2 μm filter.
A human colon cancer cell line (SW480 (ATCC)) was suspended in 4 mL of the 5% FCS-supplemented DMEM medium, and the number of cells was counted. Furthermore, the 5% FCS-supplemented DMEM medium was added so as to adjust the cell concentration to 10×10^6 cells/mL, thus giving a sample. Using part of the sample, dispensing was carried out; verapamil was not added to a main sample (verapamil(−) sample), and verapamil was added to a secondary sample so as to give a final concentration of 75 μM (verapamil(+) sample). Subsequently, the Hoechst 33342 solution was added to the verapamil(+) sample and the verapamil(−) sample so as to give a Hoechst 33342 final concentration of 5.0 μM. […]
First, cells in the verapamil(−) sample were analyzed, and cells in a cell group (side population (SP)) having low emission intensity compared with a main cell group (main population (MP)) were detected (FIG. 1).

SMILES | cytotoxicity of CTLs toward peptide pulse group [1] | effect on SP cells (side population) [2]
NCCCC[C@H](NC(=O)[C@H](CC(N)=O)NC(=O)[C@H](CCC(=O)O)NC(=O)[C@H](CC(N)=O)NC(=O)[C@@H]1CCCN1C(=O)[C@H](CCC(N)=O)NC(=O)[C@H](Cc1ccc(O)cc1)NC(=O)[C@@H](N)CO)C(=O)N[C@@H](Cc1ccccc1)C(=O)O [SF9] (H-SYQPNENKF-OH; N-terminus and C-terminus assumed) | high cytotoxicity | –
COc1ccc(CCN(C)CCCC(C#N)(c2ccc(OC)c(OC)c2)C(C)C)cc1OC (centres unmarked) [verapamil, Verapamil] | – | SP cells disappeared
